Measured values: patent US20110189161A1, “NUTRIGENOMICS METHODS AND COMPOSITIONS” (priority 2008, published 2011)
Like-named read-outs stand apart in the source and are kept apart here. Bridge positions count the residues as written; N and C are the ends. Square brackets hold non-standard residues; d marks the D form. Peptide text beside a SMILES is read from it. * marks the point of attachment. Ileψ(thiazoline)Cys = CC[C@H](C)[C@H](N)C1=N[C@H](C(=O)*)CS1; dOrn = NCCC[C@@H](N)C(=O)O

Assays:
[1] = system: rat caudate nucleus synaptosomal preparation; settings: cited from earlier work
mice [2] = assay: Alcohol preference in mice (acceptance and 14 day preference test); format: in vivo; settings: d-phenylalanine 500 mg/kg/day 18 days, hydrocinnamic acid 25 micrograms icv
[3] = system: nucleus accumbens enkephalins; settings: administered into the nucleus accumbens; cited from earlier work
mice [4] = settings: cited from earlier work
rats [5] = settings: injections in rats; cited from earlier work
[6] = 250 mg/kg, reversed by naloxone; cited from earlier work
rats [7] = settings: morphine 5 mg/kg, D-phenylalanine 100 mg/kg; similar degree; cited from earlier work
[8] = in vivo; cited from earlier work
enkephalinase = settings: cited from earlier work; for plasma EKA / CSF EKA: human sufferers
cats = settings: peptide 0.35 mg/kg and D-phenylalanine 10 mg/kg; cited from earlier work
rat skin = settings: applied to rat skin; cited from earlier work
Over-Eating [9] = settings: cited from earlier work
[10] = system: obese subjects genotyped for DRD2; assay: Chromium picolinate body composition as a function of DRD2 genotype; format: in vivo, human; settings: subjects possessing a DRD2 A1 allele
Procedure: A Case Study: Chromium and Dopamine Genes. The inventors embarked on a study with chromium picolinate to test out the principles of nutrigenomics. In this study they genotyped obese subjects for the dopamine D2 receptors gene (DRD2). The subjects were assessed for scale weight and for percent body fat. The subjects were divided into matched placebo and chromium picolinate (CrP) groups. […] Moreover, the inventors propose for the first time that mixed effects now observed with CrP administration in terms of body composition, may be resolved by typing the patient via DRD2 genotyping prior to treatment with chromium salts.

obese women = settings: cited from earlier work
Over-Eating [11] = settings: 400 mcg, cited from earlier work
Over-Eating [12] = settings: after six months, p < 0.001 between groups; cited from earlier work
paw edema by carrageenin = settings: topical 1% ointment, rats; cited from earlier work
[13] = rats; cited from earlier work
[14] = system: patients receiving opiates for chronic non-malignant pain; settings: concurrent treatment, author's clinical experience; cited from earlier work
[15] = oral oil-based paste, free access to food, three of six animals; cited from earlier work
[16] = with soya-lecithin, n-octanol-phosphate buffer; cited from earlier work
[17] = system: brain dopamine and serotonin flux; settings: intravenously, cited from earlier work
methadone patients = assay: Compliance with Trexan after rapid detoxification of methadone patients; format: in vivo, human; settings: P<0.0001
Source text: It may also be interesting too further test this hypothesis with the sublingual combination of the partial opiate mu receptor agonist buprenorphrine.

patients with CRPS1 = settings: 3 of 5 patients; unchanged in the other 2; cited from earlier work
[18] = system: SH-SY5Y human neuroblastoma cells; settings: cited from earlier work
[19] = system: intracranial self-stimulation; settings: nucleus accumbens microinjections; cited from earlier work
[20] = system: release of serotonin in the lateral hypothalamus; settings: systemic administration, long lasting and dose dependent; cited from earlier work
CYP2D6 = target: T1, CYP2D6 (Homo sapiens, UniProt P10635); settings: extensive but not poor metabolizers of debrisoquine/sparteine; cited from earlier work
T1 construct: host or cells: patients on methadone (in vivo)
T1 sequence (P10635 whole entry): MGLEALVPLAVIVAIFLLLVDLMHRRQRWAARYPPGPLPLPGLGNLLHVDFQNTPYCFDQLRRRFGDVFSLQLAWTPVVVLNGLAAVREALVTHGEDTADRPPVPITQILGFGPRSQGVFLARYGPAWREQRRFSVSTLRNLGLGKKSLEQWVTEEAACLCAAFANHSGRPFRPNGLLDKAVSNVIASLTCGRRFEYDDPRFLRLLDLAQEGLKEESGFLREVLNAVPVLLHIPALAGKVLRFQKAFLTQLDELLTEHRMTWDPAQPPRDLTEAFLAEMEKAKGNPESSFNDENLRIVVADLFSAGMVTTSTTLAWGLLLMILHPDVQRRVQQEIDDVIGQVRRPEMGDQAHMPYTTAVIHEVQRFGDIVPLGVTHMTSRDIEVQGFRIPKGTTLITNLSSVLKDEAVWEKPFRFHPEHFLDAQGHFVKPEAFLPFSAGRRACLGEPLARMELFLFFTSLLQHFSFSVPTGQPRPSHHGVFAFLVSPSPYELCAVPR

rats [21] = settings: naloxone 0.1 mg/kg; species not stated; cited from earlier work
[22] = exercise training combined with CrP supplementation

CN1[C@@H]2CC[C@H]1C[C@@H](OC(c1ccccc1)c1ccccc1)C2 [Cogentin]
release of dopamine formed from 14C-phenylalanine [1]: increased

N[C@H](Cc1ccccc1)C(=O)O [D-phenylalanine]
alcohol preference (mice [2]): significantly reduced
antinociception induced by intra-periaqueductal gray injection of morphine [3]: potentiated
analgesia (mice [4]): long-lasting, naloxone-reversible analgesia
CWS analgesia and morphine analgesia (rats [5]): decrease CWS analgesia while increasing morphine analgesia
analgesia [6]: elicits analgesia
pain reaction thresholds (rats [7]): increase
analgesia [8]: naloxone reversible analgesia
plasma EKA (enkephalinase): decreased
analgesia on coadministration with peptide IKB-901 (cats): enhances analgesia

CC(C)[C@@H]1CC[C@@H](C)C[C@H]1O [l-menthol]
Plasma concentrations of KPF with addition of the enhancer to gel ointment (rat skin): no significant enhancing effect

COc1ccc(C[C@H](N)C(=O)N[C@H]2[C@@H](O)[C@H](n3cnc4c(N(C)C)ncnc43)O[C@@H]2CO)cc1 [puromycin]
analgesia (mice [4]): long-lasting, naloxone-reversible analgesia

Chromium Picolinate
body composition, body fat, nonfat mass (Over-Eating [9]; 00 mcg or 400 mcg, two double-blind placebo controlled studies): body composition improvement, loss of body fat, gain in nonfat mass
changes in Body Mass composition indicies compared with placebo (Over-Eating [9]; 200 and 400 mcg, 72 days): about significant
any parameter of weight and body fat change [10]: no significance
weight change (obese women; CrP supplementation alone, 63 days): gain, while
insulin response to an oral glucose load (obese women; [22]): lowered
weight change (obese women; [22]): loss
weight (p < 0.001) and body fat (p < 0.004) lost compared with placebo (Over-Eating [11]; 90 days): significantly more
reduction in body fat (Over-Eating [11]; p < 0.001): greater reduction
body composition (Over-Eating [11]; p < 0.004): improve body
lean body mass (Over-Eating [12]): an increase in

CC12CCC(CC1)C(C)(C)O2 [1,8-cineole]
Plasma concentrations of KPF with addition of the enhancer to gel ointment (rat skin): no significant enhancing effect

COc1ccc2c(c1)c(CC(=O)O)c(C)n2C(=O)c1ccc(Cl)cc1 [indomethacin]
paw edema by carrageenin (paw edema by carrageenin): markedly inhibited

O=C(O)CCc1ccccc1 [hydrocinnamic acid]
alcohol preference (mice [2]): significantly reduced

CC1CCCC(C)C1=O (centres unmarked) [2,6-dimethyl]
percutaneous absorption of ketoprofen and indomethacin from gel ointments [13]: significantly lower

CC(C)(C)C1CCC(=O)CC1 [4-tert-butylcyclohexanone]
percutaneous absorption of ketoprofen and indomethacin from gel ointments [13]: significantly lower

NC(Cc1ccccc1)C(=O)O (racemic) [DL-phenylalanine (DLPA), DL-phenylalanine]
pain relief in patients receiving opiates [14]: potentiate

CC(C(=O)O)c1cccc(C(=O)c2ccccc2)c1 (racemic) [Ketoprofen]
concentrations in plasma [15]: no detectable concentrations
partition into n-octanol [16]: improves
paw edema by carrageenin (paw edema by carrageenin): markedly inhibited

O=C(O)Cc1ccccc1Nc1c(Cl)cccc1Cl [diclofenac sodium]
paw edema by carrageenin (paw edema by carrageenin): markedly inhibited

CC(C)CC(N(C)C)C1(c2ccc(Cl)cc2)CCC1 (centres unmarked) [sibutramine]
serotonin and dopamine concentrations in the striatal and hypothalamic brain regions ([17]; higher doses): increased
serotonin and dopamine concentrations in dialysates ([17]; low doses): no effect

CC[C@H](C)[C@H](N)C1=N[C@H](C(=O)N[C@@H](CC(C)C)C(=O)N[C@H](CCC(=O)O)C(=O)N[C@H](C(=O)N[C@H]2CCCCNC(=O)[C@H](CC(N)=O)NC(=O)[C@@H](CC(=O)O)NC(=O)[C@H](Cc3cnc[nH]3)NC(=O)[C@@H](Cc3ccccc3)NC(=O)[C@H]([C@@H](C)CC)NC(=O)[C@@H](CCCN)NC2=O)[C@@H](C)CC)CS1 [bacitracin] ({Ileψ(thiazoline)Cys}-L[dE]IK[dOrn]I[dF]H[dD]N; lactam 4-C)
analgesia (mice [4]): long-lasting, naloxone-reversible analgesia

CN1CC[C@]23c4c5ccc(O)c4O[C@H]2[C@@H](O)C=C[C@H]3[C@H]1C5 [morphine]
pain reaction thresholds (rats [7]): increase

Cl.O=C1CC[C@@]2(O)[C@H]3Cc4ccc(O)c5c4[C@@]2(CCN3CC2CC2)[C@H]1O5 [Trexan®]
average number of days of compliance (methadone patients): 37 days

C[C@H](CS)C(=O)N1CCC[C@H]1C(=O)O [captopril]
CSF EKA (enkephalinase): decreased

O=[N+]([O-])O[C@H]1CO[C@H]2[C@@H]1OC[C@H]2O[N+](=O)[O-] [ISDN, isosorbide dinitrate]
Visual Analog Scale pain (patients with CRPS1): declined

CCn1cc(C(=O)O)c(=O)c2ccc(Cc3ccccc3)nc21 [Amfoelic acid]
release of dopamine formed from 14C-phenylalanine [1]: net release

O=C(O)CNC(=O)C(CS)Cc1ccccc1 (centres unmarked) [thiorphan]
CSF EKA (enkephalinase): decreased
plasma EKA (enkephalinase): decreased
potency as enkephalinase inhibitor among the three drugs (enkephalinase; plasma and CSF): most potent

OC[C@H]1O[C@@H](OCCc2ccc(O)cc2)[C@H](O)[C@@H](O)[C@@H]1O [Salidroside]
H2O2-induced loss of mitochondrial membrane potential and elevation of intracellular calcium level ([18]; SH-SY5Y cells): dose-dependently restored
antioxidant property [18]: potent

C[C@H](NC(=O)[C@@H](CC(=O)NO)Cc1ccccc1)C(=O)O [kelatrophan]
intracranial self-stimulation [19]: reduced

N[C@@H](Cc1c[nH]c2ccc(O)cc12)C(=O)O [5-HTP, 5-hydroxy-1-tryptophan]
5-HT in dialysates [20]: immediate increase

Fc1ccc([C@@H]2CCNC[C@H]2COc2ccc3c(c2)OCO3)cc1 [paroxetine]
steady-state plasma concentrations of (R)-methadone (CYP2D6): increases

CC(N)Cc1ccccc1 (centres unmarked) [Amphetamine]
release of dopamine formed from 14C-phenylalanine [1]: increased

C=CCN1CC[C@]23c4c5ccc(O)c4O[C@H]2C(=O)CC[C@@]3(O)[C@H]1C5 [Naloxone]
antinociception induced by intra-periaqueductal gray injection of morphine [3]: attenuated
analgetic effect of peptide IKB-901 (rats [21]): prevents

CC(C)(C)C1CCCCC1=O (centres unmarked) [2-tert-butylcyclohexanone]
percutaneous absorption of ketoprofen and indomethacin from gel ointments [13]: markedly enhanced

CCCCCCCCC1CCCCC1=O (centres unmarked) [2-n-octylcyclohexanone]
percutaneous absorption of ketoprofen and indomethacin from gel ointments [13]: Pronounced effects
